Where no end group is shown, it is not given here.
Experiments:
TRF2 protein [1] = experiment: TRF2 immunolabelling in normal human fibroblasts, long-term culture; type: cell-based
Procedure: (§1) The goal of this study is to determine the influence of peptide SEQ ID No. 4 on TRF2 protein expression in human skin, a protein specifically associated with telomeres and involved in their maintenance. To do this, specific labeling by immunofluorescence was carried out on normal human keratinocytes (NHK) culture and on normal human fibroblast cultures on a long-term basis.
(§2) Protocol: NHK or normal human fibroblasts in culture are treated once per day with a solution at 10^−6M or at 3×10^−6M of peptide SEQ ID No. 4, between passage 5 and passage 17 (or 12 passages) for fibroblasts and between passage 1 and passage 2 (or 1 passage and 10 days of treatment) for NHK.
(§3) For immunolabelling by anti TRF2 antibodies, the cells are washed and fixed with paraformaldehyde at 3.7% for 10 minutes. The cells are then incubated in the presence of a specific anti TRF2 antibody (Abeam, ref ab13579, polyclonal mouse), and then a secondary suitable antibody, coupled with a fluorescent dye. After mounting in a particular medium, the slides are observed by epifluorescence microscope (Nikon Eclipse E 80i microscope). Fluorescence intensity is quantified by analyzing the image using the Image-Pro Analyser version 5 software.

TRF2 protein [2] = experiment: TRF2 immunolabelling in normal human keratinocytes (NHK), long-term culture; type: cell-based
Procedure: as §1, §2, §3

sirtuin 6 (SIRT6) [3] = experiment: Sirtuin 6 immunolabelling (immunofluorescence) in normal human keratinocytes (NHK); type: cell-based; settings: for SIRT6 fluorescence versus control conditions: 10^−6M or 3×10^−6 M, all conditions tested (short- and long-term); for sirtuin 6 expression stimulation effect in long-term treatment: passage 3 to passage 5
Procedure: (§4) The object of this study is to determine the influence of peptides SEQ ID No. 5 and SEQ ID No. 7 on Sirtuin 6 expression in human skin. To do this, specific labeling by immunofluorescence was carried out on normal human keratinocytes (NHK) culture and on normal human fibroblast cultures.
(§5) Protocol: NHK or normal human fibroblasts are treated once per day with a solution at 10^−6M or at 3×10^−6M of peptide SEQ ID No. 5 or peptide SEQ ID No. 7.
(§6) Short-term treatment studies for 24, 48 and 72 hours were carried out.
(§7) Long-term treatment studies were also carried out between passage 5 and passage 17 (or 12 passages) for fibroblasts and between passage 3 and passage 5 (or 2 subcultures) for NHK.
(§8) For immunolabelling by anti SIRT6 antibodies, the cells are washed and fixed with paraformaldehyde at 3.7% for 10 minutes. The cells are then incubated in the presence of a specific anti SIRT6 antibody (Abeam, ref ab62738, polyclonal rabbit), and then a secondary suitable antibody, coupled with a fluorescent dye. After mounting in a particular medium, the slides are observed by epifluorescence microscope (Nikon Eclipse E 80i microscope). Fluorescence intensity is quantified by analyzing the image using the Image-Pro Analyser version 5 software.

collagen I = experiment: Collagen I immunolabelling in normal human fibroblasts, long-term culture; type: cell-based; settings: 10^−6M or 3×10^−6M, passage 5 to 17
Procedure: (§9) The goal of this study is to determine the influence of peptide SEQ ID No. 5 on the expression of dermal extracellular matrix molecules. To do this, the expression of collagens I and III in normal human fibroblasts cultivated on a long-term basis was studied.
(§10) Protocol: Normal human fibroblasts are treated once per day with a solution at 10^−6 M or at 3×10^−6 M of peptide SEQ ID No. 5, between passage 5 and passage 17 (or 12 passages). The cells are then washed and fixed with cold methanol for 5 minutes. After unmasking specific sites, the cells are incubated in the presence of a specific antibody directed against collagen I (TEBU, ref 600-401-103, polyclonal rabbit) or against collagen III (TEBU, ref 600-401-105, polyclonal rabbit), and then incubated in the presence of a suitable secondary antibody, coupled with a fluorescent dye. After mounting in a particular medium, the slides are observed by epifluorescence microscope (Nikon Eclipse E 80i microscope).

transglutaminase 1 (TG1) = experiment: Epidermal differentiation marker immunolabelling in NHK: transglutaminase 1; type: cell-based, human; settings: 10^−6 M or 3×10^−6 M, 2 passages and 11 days of treatment
Procedure: (§11) The goal of this study is to determine the influence of peptide SEQ ID No. 5 on epidermal differentiation. To do this, the expression of the main epidermal differentiation markers, specifically expressed in the keratinocytes of suprabasal layers cultivated on a long-term basis, was studied. The markers tested are transglutaminase 1 and involucrin.
(§12) Protocol: NHK in culture are treated once per day with a solution at 10^−6M or at 3×10^−6M of peptide SEQ ID No. 5, between passage 1 and passage 3 (or 2 passages and 11 days of treatment). The cells are then washed and fixed. After unmasking the specific sites, the cells are incubated in the presence of a specific antibody directed against TG1 (TEBU, ref sc-25786, polyclonal rabbit), a specific antibody directed against involucrin (Novocastra NCL-INV, mouse monoclonal, clone SYS), and then incubated in the presence of a suitable secondary antibody, coupled with a fluorescent dye. For greater ease of observation, the cell nuclei may be counterstained by DAPI (4′,6′ Di Amidino-2-Phenylindole), a fluorescent blue molecule capable of strongly bonding to DNA). After mounting in a particular medium, the slides are observed by epifluorescence microscope (Nikon Eclipse E 80i microscope).

normal human fibroblasts = experiment: Comet assay after UVB irradiation of normal human fibroblasts; type: cell-based; settings: peptide 3×10^−6 M 24 h before and 24 h after UVB 60 mJ/cm^2
Procedure: The goal of this study is to determine the protective effect of peptide SEQ ID No. 5 on damage caused to the DNA by UV radiation. To do this, a comet assay, that enables damage caused to the DNA at the cellular level to be quantified, was performed.
Protocol: Normal human fibroblasts are cultured for 24 hours with the peptide of sequence SEQ ID No. 5 at a concentration of 10^−6M or 3×10^−6M, and then irradiated with UVB radiation at a rate of 60 mJ/cm^2, and then treated again for 24 hours by the peptide at a concentration of 10^−6M or 3×10^−6M. A control condition is carried out in the absence of treatment. The cells are then detached from their support by the trypsin, then centrifuged at 1200 rotations/min for 10 minutes in order to concentrate and count them.
A defined number of cells (25,000 cells) is then included in a Low Melting agarose gel at 0.75%, and then deposited on a glass slide previously covered with agarose at 1%. The slides are then immersed in a lysis solution for 1½ hours at 4° C., and then in an alkaline solution for 20 min at 4° C. The cells are thus lyzed and the DNA is denatured. […]
Quantification software enables the mean “Tail Moment” (or length of the comet tail) applied to each condition tested to be determined This parameter provides information on the level of DNA damage: the higher this parameter, the greater the DNA degradation.

sirtuin 6 (SIRT6) [4] = experiment: Sirtuin 6 immunolabelling (immunofluorescence) in normal human fibroblasts; type: cell-based; settings: for SIRT6 fluorescence versus control conditions: 10^−6M or 3×10^−6 M, all conditions tested (short- and long-term); for sirtuin 6 expression stimulation effect in long-term treatment: passage 5 to passage 17
Procedure: as §4, §5, §6, §7, §8

sirtuin 6 (SIRT6) [5] = experiment: Sirtuin 6 immunolabelling in NHK after oxidative stress by H2O2; type: cell-based, human
Procedure: The goal of this study is to determine the protective effect of peptide SEQ ID No. 5 on keratinocytes during oxidative stress. To do this, the expression of Sirtuin 6 was qualitatively and quantitatively evaluated by specific immunolabelling after oxidative stress by H2O2.
Protocol: The NHK in culture are treated for 24 hours with a solution at 10^−6M or 3×10^−6M of peptide SEQ ID No. 5. The cells are then incubated in the presence of H2O2 at 2 mM, rinsed and then treated for another 24 hours with a solution at 10^−6M or 3×10^−6M of peptide SEQ ID No. 5. A control that was not treated and not subjected to the H2O2 stress (control 0), as well as a control that was not treated but was subjected to the H2O2 stress (control 1) were carried out.
For immunolabelling by anti SIRT6 antibodies, the cells are washed and fixed with paraformaldehyde at 3.7% for 10 minutes. The cells are then incubated in the presence of a specific anti SIRT6 antibody (Abcam, ref ab62738, polyclonal mouse), and then a secondary suitable antibody, coupled with a fluorescent dye. After mounting in a particular medium, the slides are observed by epifluorescence microscope (Nikon Eclipse E 80i microscope). Fluorescence intensity is quantified by analyzing the image using the Image-Pro Analyser version 5 software.

involucrin = experiment: Epidermal differentiation marker immunolabelling in NHK: involucrin; type: cell-based, human; settings: 10^−6 M or 3×10^−6 M, 2 passages and 11 days of treatment
Procedure: as §11, §12

collagen III = experiment: Collagen III immunolabelling in normal human fibroblasts, long-term culture; type: cell-based; settings: 10^−6M or 3×10^−6M, passage 5 to 17
Procedure: as §9, §10

[6] = 10^−6 M or 3×10^−6 M, long-term

Substance | TRF2 fluorescence versus control conditions (TRF2 protein [1]; [6]) | maximum increase of the TRF2 fluorescence with relation to the control cells (TRF2 protein [1]; treated for 12 subcultures, 10^−6 M peptide) [%] | TRF2 fluorescence versus control conditions (TRF2 protein [2]; [6]) | maximum increase of the TRF2 fluorescence with relation to the control cells (TRF2 protein [2]; treated for 10 days, 3×10^−6 M peptide) [%] | SIRT6 fluorescence versus control conditions (sirtuin 6 (SIRT6) [3]) | sirtuin 6 expression stimulation effect in long-term treatment (sirtuin 6 (SIRT6) [3]) | maximum increase of the SIRT6 fluorescence with relation to the control cells (sirtuin 6 (SIRT6) [3]; treated 72 hours, 3×10^−6M peptide) [%] | collagen I fluorescence versus control conditions (collagen I) | transglutaminase 1 fluorescence versus control conditions (transglutaminase 1 (TG1)) | reduction of the Tail Moment compared to the control conditions (normal human fibroblasts) [%] | SIRT6 fluorescence versus control conditions (sirtuin 6 (SIRT6) [4]) | sirtuin 6 expression stimulation effect in long-term treatment (sirtuin 6 (SIRT6) [4]) | maximum increase of the SIRT6 fluorescence with relation to the control cells (sirtuin 6 (SIRT6) [4]; treated 24 hours, 10^−6 M peptide) [%] | increase in SIRT6 expression with relation to control 1 (untreated, H2O2 stress) (sirtuin 6 (SIRT6) [5]; peptide 3×10^−6 M 24 h before and 24 h after H2O2 2 mM) [%] | increase in SIRT6 expression with relation to control 1 (untreated, H2O2 stress) (sirtuin 6 (SIRT6) [5]; peptide 10^−6M 24 h before and 24 h after H2O2 2 mM) [%] | involucrin fluorescence versus control conditions (involucrin) | collagen III fluorescence versus control conditions (collagen III)
GAGVSAE [SEQ ID No. 4] | more intense fluorescence | 63 | more intense fluorescence | 39 |  |  |  |  |  |  |  |  |  |  |  |  | 
Gly-Ala-Gly-Val-Ser-Ala-Glu-NH2 (GAGVSAE-NH2) [SEQ ID No. 5] |  |  |  |  | more intense fluorescence | maintained for the long term | 35 | More intense fluorescence | More intense fluorescence | 24.8 | more intense fluorescence | maintained for the long term | 47 | 20 | 16 | More intense fluorescence | More intense fluorescence
Thr-Gln-Asn-Ile-Asp-Glu-Leu-NH2 (TQNIDEL-NH2) [SEQ ID No. 7] |  |  |  |  | more intense fluorescence | maintained for the long term |  |  |  |  | more intense fluorescence | maintained for the long term |  |  |  |  | 

Reference: patent US8569243B2, “Sirtuin 6 activating peptides and cosmetic or pharmaceutical composition containing them” (ISP Investments Inc., priority 2010, dated 2013)
